From US20080044428A1, “Glycosylphosphatidylinositol Glycan Signalling Via Integrins Functioning as Glycan Specific Receptors” (THE WALTER AND ELIZA HALL INSTITUTE OF MEDICAL RES, priority 2004, published 2008)

Assays:
[1] = test system: αMβ2-integrin, also known as CR3 or Mac-1; test: FACS binding of fluoresceinated conjugates to CHO cells transfected with αMβ2-integrin; conditions: FACS analysis, CHO-Mac1 cells
Excerpt: (§1) Sham conjugation procedures were also followed substituting cysteine for glycan.

[2] = test system: sham-transfected CHO cells (CHO-Neo); test: FACS binding of fluoresceinated conjugates to sham-transfected CHO cells; conditions: FACS analysis
Excerpt: as §1

αMβ2-integrin, also known as CR3 or Mac-1, sequence (P05107 23-769, other chains not shown): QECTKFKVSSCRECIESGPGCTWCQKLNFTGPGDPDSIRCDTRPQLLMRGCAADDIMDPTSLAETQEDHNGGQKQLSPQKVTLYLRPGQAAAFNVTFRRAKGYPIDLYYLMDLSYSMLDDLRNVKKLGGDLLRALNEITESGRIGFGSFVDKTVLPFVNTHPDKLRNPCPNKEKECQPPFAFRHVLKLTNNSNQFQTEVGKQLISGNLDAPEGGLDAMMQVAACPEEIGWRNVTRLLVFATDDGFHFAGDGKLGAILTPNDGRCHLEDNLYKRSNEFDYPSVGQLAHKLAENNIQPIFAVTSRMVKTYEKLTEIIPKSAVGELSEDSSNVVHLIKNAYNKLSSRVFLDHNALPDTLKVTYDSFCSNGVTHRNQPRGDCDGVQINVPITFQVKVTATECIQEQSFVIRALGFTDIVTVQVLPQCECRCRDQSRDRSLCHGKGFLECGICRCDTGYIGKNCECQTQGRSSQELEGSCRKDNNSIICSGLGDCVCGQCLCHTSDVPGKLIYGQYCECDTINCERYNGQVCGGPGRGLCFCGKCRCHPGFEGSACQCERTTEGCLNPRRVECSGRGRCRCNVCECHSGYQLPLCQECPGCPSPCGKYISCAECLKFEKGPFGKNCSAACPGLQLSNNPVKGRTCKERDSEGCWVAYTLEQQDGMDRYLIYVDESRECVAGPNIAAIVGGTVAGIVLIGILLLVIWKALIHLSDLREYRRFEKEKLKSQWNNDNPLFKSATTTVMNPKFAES

Substance: fluoresceinated BSA-cysteine: sham conjugate of BSA carrier protein substituting cysteine for glycan, fluoresceinated
- binding to CHO cells transfected with αMβ2-integrin [1]: 0.69%
- binding to sham-transfected CHO cells (CHO-Neo) [2]: 0.4%
